Legend:
DIGSA [1] = assay: Post-emergence herbicidal action against DIGSA; assay type: in vivo, Digitaria sanguinalis; settings: Digitaria sanguinalis, 504 h
How it was run: (§1)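 Percent herbicidal action is rated by eye about 3 weeks after treatment against untreated controls, where 100% means dead plants and 0% means like controls. Plants in sandy loam are sprayed on green parts at the one-leaf stage with aqueous WP or EC preparations at 600 to 800 l/ha plus 0.2% wetting agent.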

SETVI [2] = assay: Pre-emergence herbicidal action against SETVI; assay type: in vivo, Setaria viridis; settings: Setaria viridis, 504 h
How it was run: (§2)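 Seeds sown in sandy loam, soil-covered; compound sprayed on soil surface pre-emergence. Application: WP/EC, 600–800 l/ha, 0.2% wetting agent. Readout: visual % damage at 3 weeks.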

ECHCG [3] = assay: Pre-emergence herbicidal action against ECHCG; assay type: in vivo, Echinochloa crus-galli; settings: Echinochloa crus-galli, 504 h
How it was run: as §2

VIOTR [4] = assay: Pre-emergence herbicidal action against VIOTR; assay type: in vivo, Viola tricolor; settings: Viola tricolor, 504 h
How it was run: as §2

VIOTR [5] = assay: Post-emergence herbicidal action against VIOTR; assay type: in vivo, Viola tricolor; settings: Viola tricolor, 504 h
How it was run: as §1

ALOMY [6] = assay: Post-emergence herbicidal action against ALOMY; assay type: in vivo, Alopecurus myosuroides; settings: Alopecurus myosuroides, 504 h, dosage 20 g/ha, visual assessment about 3 weeks after treatment vs untreated controls
How it was run: as §1

AMARE [7] = assay: Post-emergence herbicidal action against AMARE; assay type: in vivo, Amaranthus retroflexus; settings: Amaranthus retroflexus, 504 h, 20 g/ha, visual assessment about 3 weeks after treatment, 100% = plants have died, 0% = like control plants
How it was run: as §1

MATIN [8] = assay: Post-emergence herbicidal action against MATIN; assay type: in vivo, Matricaria inodora; settings: Tripleurospermum inodorum, 504 h, dosage 20 g/ha
How it was run: as §1

ABUTH [9] = assay: Post-emergence herbicidal action against ABUTH; assay type: in vivo, Abutilon theophrasti; settings: Abutilon theophrasti, 504 h, visual assessment about 3 weeks after treatment vs untreated controls
How it was run: as §1

AVEFA [10] = assay: Pre-emergence herbicidal action against AVEFA; assay type: in vivo, Avena fatua; settings: Avena fatua, 504 h, pre-emergence
How it was run: as §2

ALOMY [11] = assay: Pre-emergence herbicidal action against ALOMY; assay type: in vivo, Alopecurus myosuroides; settings: Alopecurus myosuroides, 504 h, pre-emergence
How it was run: as §2

DIGSA [12] = assay: Pre-emergence herbicidal action against DIGSA; assay type: in vivo, Digitaria sanguinalis; settings: Digitaria sanguinalis, 504 h
How it was run: as §2

MATIN [13] = assay: Pre-emergence herbicidal action against MATIN; assay type: in vivo, Matricaria inodora; settings: Tripleurospermum inodorum, 504 h
How it was run: as §2

PHBPU = assay: Post-emergence herbicidal action against PHBPU; assay type: in vivo, Pharbitis purpurea; settings: Ipomoea purpurea, 504 h
How it was run: as §1

ABUTH [14] = assay: Pre-emergence herbicidal action against ABUTH; assay type: in vivo, Abutilon theophrasti; settings: Abutilon theophrasti, 504 h
How it was run: as §2

ECHCG [15] = assay: Post-emergence herbicidal action against ECHCG; assay type: in vivo, Echinochloa crus-galli; settings: Echinochloa crus-galli, 504 h
How it was run: as §1

SETVI [16] = assay: Post-emergence herbicidal action against SETVI; assay type: in vivo, Setaria viridis; settings: Setaria viridis, 504 h, dosage 20 g/ha
How it was run: as §1

STEME [17] = assay: Post-emergence herbicidal action against STEME; assay type: in vivo, Stellaria media; settings: Stellaria media, 504 h
How it was run: as §1

AMARE [18] = assay: Pre-emergence herbicidal action against AMARE; assay type: in vivo, Amaranthus retroflexus; settings: Amaranthus retroflexus, 504 h, scored visually after 3 weeks vs untreated controls, 100% = plants have died, 0% = like control plants
How it was run: as §2

HORMU = assay: Pre-emergence herbicidal action against HORMU; assay type: in vivo, Hordeum murinum; settings: Hordeum murinum, 504 h; 80 g/ha, pre-emergence
Excerpt: Seeds of monocotyledonous and dicotyledonous weed plants and crop plants are laid out in sandy loam soil in wood-fiber pots and covered with soil. The compounds of the invention, formulated in the form of wettable powders (WP) or as emulsion concentrates (EC), are then applied to the surface of the covering soil in the form of an aqueous suspension or emulsion at a water application rate equivalent to 600 to 800 l/ha, with addition of 0.2% wetting agent. After the treatment, the pots are placed in a greenhouse and kept under good growth conditions for the trial plants. The damage to the test plants is scored visually after a test period of 3 weeks by comparison with untreated controls (herbicidal activity in percent (%): 100% activity=the plants have died, 0% activity=like control plants). […] The tables below illustrate, in an illustrative manner, the post-emergence herbicidal action of the compounds of the invention, the herbicidal activity being stated in percent.

VERPE = assay: Pre-emergence herbicidal action against VERPE; assay type: in vivo, Veronica persica; settings: Veronica persica, 504 h, dosage 80 g/ha
How it was run: as §2

LOLRI = assay: Pre-emergence herbicidal action against LOLRI; assay type: in vivo, Lolium rigidum; settings: Lolium rigidum, 504 h, 80 g/ha
How it was run: as §2

AVEFA [19] = assay: Post-emergence herbicidal action against AVEFA; assay type: in vivo, Avena fatua; settings: Avena fatua, 504 h, 20 g/ha, visual assessment about 3 weeks after treatment, 100% = plants have died, 0% = like control plants
How it was run: as §1

STEME [20] = assay: Pre-emergence herbicidal action against STEME; assay type: in vivo, Stellaria media; settings: Stellaria media, 504 h
How it was run: as §2

[21] = 20 g/ha, scored visually after 3 weeks, 100% = plants have died, 0% = like control plants
[22] = 80 g/ha, scored visually after 3 weeks vs untreated controls (100% = plants have died, 0% = like control plants)

Work on `CCNC(=O)c1c(C(F)(F)F)ccc(C(=O)Nc2nnnn2C)c1Cl` [Example 1-130] yielded a pest or weed control at 5 g/ha (DIGSA [1]; 5 g/ha) of 90%, a pest or weed control at 20 g/ha (DIGSA [1]; 20 g/ha) of 90% and a pest or weed control at 20 g/ha (SETVI [2]; dosage 20 g/ha) of 90%. It also gave a pest or weed control at 80 g/ha (SETVI [2]; dosage 80 g/ha) of 100%, a pest or weed control at 20 g/ha (ECHCG [3]; 20 g/ha) of 90% and a pest or weed control at 80 g/ha (ECHCG [3]; 80 g/ha) of 100%. It also gave a pest or weed control at 20 g/ha (VIOTR [4]; dosage 20 g/ha) of 100%, a pest or weed control at 80 g/ha (VIOTR [4]; dosage 80 g/ha) of 100% and a pest or weed control at 5 g/ha (VIOTR [5]; 5 g/ha) of 90%. It also gave a pest or weed control at 20 g/ha (VIOTR [5]; 20 g/ha) of 90%, a pest or weed control at 20 g/ha (ALOMY [6]) of 80% and a pest or weed control at 20 g/ha (AMARE [7]) of 90%. For the same molecule, the pest or weed control at 20 g/ha (MATIN [8]) was 80%, the pest or weed control at 5 g/ha (ABUTH [9]; dosage 5 g/ha) was 90% and the pest or weed control at 20 g/ha (ABUTH [9]; dosage 20 g/ha) was 90%. For the same molecule, the pest or weed control at 80 g/ha (AVEFA [10]; 80 g/ha) was 100%, the pest or weed control at 20 g/ha (AVEFA [10]; [21]) was 100% and the pest or weed control at 80 g/ha (ALOMY [11]; [22]) was 100%. It also gave a pest or weed control at 20 g/ha (ALOMY [11]; [21]) of 100%, a pest or weed control at 20 g/ha (DIGSA [12]; dosage 20 g/ha) of 100% and a pest or weed control at 80 g/ha (DIGSA [12]; dosage 80 g/ha) of 100%. It also gave a pest or weed control at 20 g/ha (MATIN [13]; dosage 20 g/ha) of 100%, a pest or weed control at 80 g/ha (MATIN [13]; dosage 80 g/ha) of 100% and a pest or weed control at 5 g/ha (PHBPU; dosage 5 g/ha) of 80%. For the same molecule, the pest or weed control at 20 g/ha (PHBPU; dosage 20 g/ha) was 90%, the pest or weed control at 80 g/ha (ABUTH [14]; [22]) was 100% and the pest or weed control at 20 g/ha (ABUTH [14]; dosage 20 g/ha, scored visually after 3 weeks vs untreated controls, 100% = plants have died, 0% = like control plants, read-out: Pre-emergence action against ABUTH (herbicidal activity in percent)) was 100%. The pest or weed control at 5 g/ha (ECHCG [15]; dosage 5 g/ha) was 80%, the pest or weed control at 20 g/ha (ECHCG [15]; dosage 20 g/ha) was 80% and the pest or weed control at 20 g/ha (SETVI [16]) was 80%. For the same molecule, the pest or weed control at 20 g/ha (STEME [17]; 20 g/ha) was 80%, the pest or weed control at 5 g/ha (STEME [17]; dosage 5 g/ha) was 80% and the pest or weed control at 20 g/ha (AMARE [18]; 20 g/ha) was 100%. For the same molecule, the pest or weed control at 80 g/ha (AMARE [18]; 80 g/ha) was 100%, the pest or weed control at 80 g/ha (HORMU) was 90% and the pest or weed control at 80 g/ha (VERPE) was 80%. The pest or weed control at 80 g/ha (LOLRI) was 100%, the pest or weed control at 20 g/ha (AVEFA [19]) was 80% and the pest or weed control at 20 g/ha (STEME [20]; dosage 20 g/ha) was 100%. The pest or weed control at 80 g/ha (STEME [20]; dosage 80 g/ha) was 100%.
